Measurements from ChEMBL document CHEMBL4673321, “15β-Senecioyl-oxy-ent-kaur-16-en-19-oic Acid, a Diterpene Isolated from Baccharis lateralis, as Promising Oral Compound for the Treatment of Schistosomiasis” (J Nat Prod, 2020).
Activity calls are given as the source filed them. No cut-off for these calls is given here.

Tests used:
[1] = Selectivity index, ratio of CC50 for cytotoxicity against human SH-SY5Y cells to LC50 for antischistosomal activity against Schistosoma mansoni BH; assay type: toxicity, cell-based; settings: read-out: Selectivity Index
Schistosoma mansoni [2] = experiment: Antischistosomal activity against Schistosoma mansoni BH assessed as reduction in oviposition at 6.25 to 25 uM after 72 hrs light microscopic method; assay type: functional, organism-based; settings: dose 6.25-25 µM
[3] = Cytotoxicity against human SH-SY5Y cells assessed as reduction in cell viability after 48 hrs by MTT assay; assay type: cell-based
[4] = Toxicity in mouse infected with Schistosoma mansoni BH cercariae at 400 mg/kg, po after 14 days administered as dose starting on day 49 post-infection and measured after 14 days; assay type: organism-based; settings: in vivo, 336 h, time 14 day
Schistosoma mansoni [5] = experiment: Antischistosomal activity against Schistosoma mansoni BH assessed as reduction in parasitic viability at 25 uM after 24 hrs inverted light microscopic method; assay type: functional, organism-based
[6] = Selectivity index, ratio of CC50 for cytotoxicity against human HaCaT cells to LC50 for antischistosomal activity against Schistosoma mansoni BH; assay type: toxicity, cell-based; settings: read-out: Selectivity Index
Schistosoma mansoni [7] = experiment: Antischistosomal activity against Schistosoma mansoni BH assessed as reduction in parasitic viability after 72 hrs by inverted microscopic method; assay type: functional
Schistosoma mansoni [8] = experiment: Antischistosomal activity against female Schistosoma mansoni BH assessed as dilation of ovaries at 25 uM after 72 hrs microscopic method; assay type: functional, organism-based
[9] = Cytotoxicity against human HaCaT cells assessed as reduction in cell viability after 48 hrs by MTT assay; assay type: cell-based
Schistosoma mansoni [10] = experiment: Antischistosomal activity against Schistosoma mansoni BH cercariae infected in mouse assessed as reduction in egg burden in fecal at 400 mg/kg, po administered as dose starting on day 49 post-infection and measured after 14 days post treatment relative to control; assay type: functional; parameters: scale not given: the % may be the effect or the level left; settings: time 14 day
Schistosoma mansoni [11] = experiment: Antischistosomal activity against male Schistosoma mansoni BH assessed as dilation of testes at 25 uM after 72 hrs microscopic method; assay type: functional, organism-based
Schistosoma mansoni [12] = experiment: Antischistosomal activity against Schistosoma mansoni BH cercariae infected in mouse assessed as reduction in liver weight at 400 mg/kg, po administered as dose starting on day 49 post-infection and measured after 14 days post treatment relative to control; assay type: functional; parameters: scale not given: the % may be the effect or the level left; settings: time 14 day
Schistosoma mansoni [13] = experiment: Antischistosomal activity against Schistosoma mansoni BH cercariae infected in mouse assessed as reduction in worm burden at 400 mg/kg, po administered as single dose starting on day 49 post-infection and measured after 14 days post treatment relative to control; assay type: functional; parameters: scale not given: the % may be the effect or the level left; settings: time 14 day
Schistosoma mansoni [14] = experiment: Antischistosomal activity against Schistosoma mansoni BH cercariae infected in mouse assessed as reduction in egg burden in wall of intestine at 400 mg/kg, po administered as dose starting on day 49 post-infection and measured after 14 days post treatment relative to control; assay type: functional; parameters: scale not given: the % may be the effect or the level left; settings: time 14 day
Schistosoma mansoni [15] = experiment: Antischistosomal activity against Schistosoma mansoni BH cercariae infected in mouse assessed as reduction in spleen weight at 400 mg/kg, po administered as dose starting on day 49 post-infection and measured after 14 days post treatment relative to control; assay type: functional; parameters: scale not given: the % may be the effect or the level left; settings: time 14 day
Schistosoma mansoni [16] = experiment: Antischistosomal activity against Schistosoma mansoni BH assessed as reduction in oviposition at 25 uM after 72 hrs light microscopic method; assay type: functional, organism-based

Row | SMILES | selectivity ratio [1] | Activity (Schistosoma mansoni [2]) | CC50 at 48 h [3] [µM] | Activity [4] | Activity (Schistosoma mansoni [5]) | selectivity ratio [6] | LC50 (Schistosoma mansoni [7]) [µM] | Activity (Schistosoma mansoni [8]) | CC50 at 48 h [9] [µM] | Activity (Schistosoma mansoni [10]) [%] | Activity (Schistosoma mansoni [11]) | Activity (Schistosoma mansoni [12]) [%] | Activity (Schistosoma mansoni [13]) [%] | Activity (Schistosoma mansoni [14]) [%] | Activity (Schistosoma mansoni [15]) [%] | Activity (Schistosoma mansoni [16])
1 | C=C1[C@@H]2CC[C@H]3[C@]4(C)CCC[C@@](C)(C(=O)O)[C@H]4CC[C@]3(C2)[C@H]1OC(=O)C=C(C)C | 9.1 | Active | 106 | Non-Toxic | Active | 12.7 | 11.6 | Active | 147 | 71.6 | Active | 23.5 | 61.9 | 69.2 | 29.8 | 
2 | O=C(C1CCCCC1)N1CC(=O)N2CCc3ccccc3C2C1 (stereo not given) [PRAZIQUANTEL] | > 180 |  | > 200 |  |  | > 180 | 1.1 |  | > 200 |  |  |  | 91.1 |  |  | 
3 | C=C1C[C@@]23CC[C@H]4[C@@](C)(CCC[C@@]4(C)C(=O)O)[C@@H]2CC[C@@H]1C3 [KAURENOIC ACID] | 1.7 |  | 45.4 |  | Active | 4.2 | 26.1 | inactive | 109 |  | inactive |  |  |  |  | Active
